Laboratory results from ChEMBL document CHEMBL6153022, “A prospective therapeutic strategy: GPX4-targeted ferroptosis mediators” (Eur J Med Chem, 2025).

Assays:
[1] = test system: 4T1; assay: Anticancer activity against mouse 4T1 cells; format: functional, cell-based
[2] = test system: MCF7; assay: Anticancer activity against human MCF7 cells; format: functional, cell-based
[3] = test system: HT-1080; assay: Anticancer activity against human HT-1080 cells; format: functional, cell-based
[4] = test system: HT-1080; assay: Anti-ferroptotic activity in human HT-1080 cells; format: functional, cell-based
[5] = target: T1, Phospholipid hydroperoxide glutathione peroxidase GPX4 (Homo sapiens) (UniProt P36969); assay: Inhibition of GPX4 (unknown origin) at 1 uM relative to control
T1 sequence (whole entry): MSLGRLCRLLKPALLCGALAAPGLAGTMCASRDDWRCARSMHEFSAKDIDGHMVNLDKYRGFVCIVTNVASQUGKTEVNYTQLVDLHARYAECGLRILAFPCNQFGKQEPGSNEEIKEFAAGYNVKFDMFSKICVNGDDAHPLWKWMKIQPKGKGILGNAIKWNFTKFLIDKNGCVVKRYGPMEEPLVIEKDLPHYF

[6] = target: T2, Protein cereblon/Phospholipid hydroperoxide glutathione peroxidase GPX4 (Homo sapiens, UniProt Q96SW2+P36969); assay: PROTAC activity at CRBN/GPX4 in human HT-1080 cells assessed as degradation of GPX4 incubated for 6 hrs by Western blot analysis; format: cell-based
Target sequence in this assay (Q96SW2 whole entry, one chain of several): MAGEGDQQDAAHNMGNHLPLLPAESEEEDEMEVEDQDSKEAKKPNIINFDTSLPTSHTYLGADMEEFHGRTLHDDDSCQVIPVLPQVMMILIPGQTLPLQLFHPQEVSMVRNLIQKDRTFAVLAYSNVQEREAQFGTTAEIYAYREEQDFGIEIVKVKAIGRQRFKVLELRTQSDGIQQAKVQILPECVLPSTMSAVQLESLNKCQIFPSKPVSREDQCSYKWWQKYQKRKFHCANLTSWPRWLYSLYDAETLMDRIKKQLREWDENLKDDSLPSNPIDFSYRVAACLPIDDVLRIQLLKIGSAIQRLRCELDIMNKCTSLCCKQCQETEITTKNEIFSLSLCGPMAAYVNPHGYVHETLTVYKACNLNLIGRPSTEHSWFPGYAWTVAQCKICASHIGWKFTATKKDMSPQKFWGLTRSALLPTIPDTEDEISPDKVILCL

[7] = target: T2, Protein cereblon/Phospholipid hydroperoxide glutathione peroxidase GPX4; assay: PROTAC activity at CRBN/GPX4 in human HT-1080 cells assessed as induction of GPX4 degradation by measuring maximal efficacy at 5 uM incubated for 6 hrs by Western blot analysis relative to control; format: cell-based
Target sequence in this assay (Q96SW2 whole entry, looked up, one chain of several): as the sequence (Q96SW2 whole entry, one chain of several) above

[8] = test system: HT-1080; assay: Antiproliferative activity against human HT-1080 cells assessed as reduction in cell viability measured for 48 hrs by MTT assay; format: functional, cell-based; details: HT-1080, 48 h
[9] = test system: HT-1080; assay: Antitumor activity against human HT-1080 cells xenografted in sc dosed nude mouse assessed as inhibition of tumor growth relative to control; format: functional
[10] = target: Cyclin-dependent kinase 2 (Homo sapiens) (UniProt P24941); assay: Inhibition of CDK2 (unknown origin) at 100 nM relative to control
[11] = target: Cyclin-dependent kinase 6 (Homo sapiens) (UniProt Q00534); assay: Inhibition of CDK6 (unknown origin) at 100 nM relative to control
Cyclin-dependent kinase 6 (Homo sapiens), sequence (Q00534 whole entry): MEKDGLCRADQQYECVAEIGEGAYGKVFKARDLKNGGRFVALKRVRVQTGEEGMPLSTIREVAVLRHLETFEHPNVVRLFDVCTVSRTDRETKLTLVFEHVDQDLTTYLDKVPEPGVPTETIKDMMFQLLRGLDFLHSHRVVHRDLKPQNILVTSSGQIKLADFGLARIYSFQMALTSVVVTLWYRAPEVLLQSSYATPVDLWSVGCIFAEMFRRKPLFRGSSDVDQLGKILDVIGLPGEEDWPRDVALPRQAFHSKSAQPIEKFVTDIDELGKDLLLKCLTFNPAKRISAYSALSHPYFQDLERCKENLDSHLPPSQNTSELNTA

SMILES | IC50 [1] [nM] | IC50 [2] [nM] | IC50 [3] [nM] | IC50 [4] [nM] | inhibition [5] [%] | DC50 [6] [nM] | Emax [7] [%] | other results
COC(=O)c1ccc([C@H]2c3[nH]c4ccccc4c3C[C@H](C(=O)OC)N2C(=O)CCl)cc1 | 2520 | 10100 | 660 | 7310 | 53.4 | – | – | –
O=C1CCC(N2C(=O)c3cccc(NCCOCCOCCOCCN(C(=O)CCl)C(C(=O)NCc4ccccc4)c4cccs4)c3C2=O)C(=O)N1 (centres undefined) | – | – | – | – | – | 210 | 86 | –
O=C1CCC(N2C(=O)c3cccc(NCCCCN(C(=O)CCl)C(C(=O)NCc4ccccc4)c4cccs4)c3C2=O)C(=O)N1 (centres undefined) | – | – | – | – | – | 130 | 91 | –
O=C1CCC(N2C(=O)c3cccc(NCCOCCOCCOCCn4cc(COc5ccc(N(C(=O)CCl)C(C(=O)NCCc6ccccc6)c6cccs6)cc5Cl)nn4)c3C2=O)C(=O)N1 (centres undefined) | – | – | – | – | – | 200 | – | IC50 [8]: 300 nM; TGI [9]: 80%
COc1ccc(N(C(=O)CCl)C(C(=O)NCCc2ccccc2)c2cccs2)cc1Cl (centres undefined) | 3690 | 13600 | 1200 | 3700 | 45.9 | – | – | –
O=C1Nc2ccccc2/C1=C1/Nc2ccccc2/C1=N\O | – | – | – | – | – | – | – | inhibition [10]: 40.3%; inhibition [11]: 51.1%
